# Laboratory results as given in patent US20220031697A1, “Dose and regimen for an hdm2-p53 interaction inhibitor in hematological tumors” (Novartis AG, priority 2017, published 2022).
# Where “and” joins values, the source holds several entries; their conditions need not be identical. Equal values may be shown once. Read-outs that look alike come from different tables or passages of the source.
# Experiments:
# [1] = system: human SJSA-1 (osteosarcoma) xenograft; experiment: TGI PK/PD modelling, xenograft rat; format: in vivo; details: human SJSA-1 xenograft rat
# Description: Line at 120 ng/mL=95% tumor regression from human SJSA-1 xenograft rat. […] Calculation of average dose level (mg/day):
# To further support the 45 mg for HDM201, compartmental PK modeling was used to estimate the individual average concentration during cycle 1 for patients with hematological tumors treated at 45 mg on regimen 2C (FIG. 2). For all patients with measured PK, the estimated average drug concentrations during cycle 1 were above the most conservative average tumor stasis concentration of about 41 ng/mL per cycle determined from PKPD modeling of preclinical data (human SJSA-1 xenograft rat model).
# [2] = system: human HSAX2655 (liposarcoma) PDX; experiment: TGI PK/PD modelling, PDX rat; format: in vivo
# [3] = system: patients with hematological tumors
# Description: Herein, data are disclosed from this multicenter, open-label, first-in-human Phase I study of HDM201 in patients with advanced TP53 wild-type (WT) leukemias.
# The clinical study design allowed parallel exploration of the safety, tolerability, and clinical activity (efficacy) of two broad dosing strategies for HDM201 during dose escalation: intermittent high dose regimens (Regimen 1A and 1B) and extended low dose regimens (Regimen 2A and 2C).
# This clinical study utilized a Bayesian logistic regression model (BLRM) to support dose escalation and estimate the MTD for HDM201. The BLRM enables incorporation of available prior information and updates the model parameters based upon the DLTs observed in the clinical study at varied doses in evaluable patients.
# [4] = 1A 250 mg N=10, cut-off 15 Jan. 2018
# [5] = 1B 120 mg N=23, cut-off 15 Jan. 2018
# [6] = 2C 45 mg N=25, cut-off 15 Jan. 2018
smiles,measurement,setting,value
"COc1ncc(-c2nc3c(n2C(C)C)[C@H](c2ccc(Cl)cc2)N(c2cc(Cl)cn(C)c2=O)C3=O)c(OC)n1 [HDM201, (S)-5-(5-Chloro-1-methyl-2-oxo-1,2-dihydro-pyridin-3-yl)-6-(4-chloro-phenyl)-2-(2,4-dimethoxy-pyrimidin-5-yl)-1-isopropyl-5,6-dihydro-1H-pyrrolo[3,4-d]imidazol-4-one]",Concentration for 95% tumor regression,[1],120 ng/mL
same,Average concentration for tumor stasis,[2],19 ng/mL
same,"Abdominal Discomfort, Grade 3/4",[3],0 n (%)
same,"Abdominal Pain Upper, Grade 3/4",[3],0 n (%)
same,"Abdominal Pain, Grade 3/4",[3],0 n (%)
same,"Amylase Increased, Grade 3/4",[3],0 n (%)
same,"Arthralgia, Grade 3/4",[3],0 n (%)
same,"Asthenia, Grade 3/4",[3],0 n (%)
same,"Atrial Fibrillation, Grade 3/4",[3],0 n (%)
same,"Atypical Pneumonia, Grade 3/4",[3],0 n (%)
same,"Balanitis Candida, Grade 3/4",[3],0 n (%)
same,"Blood Alkaline Phosphatase Increased, Grade 3/4",[3],0 n (%)
same,"Blood Bilirubin Increased, Grade 3/4",[3],0 n (%)
same,"Blood Phosphorus Increased, Grade 3/4",[3],0 n (%)
same,"Cardiac Failure, Grade 3/4",[3],0 n (%)
same,"Conjunctival Haemorrhage, Grade 3/4",[3],0 n (%)
same,"Constipation, Grade 3/4",[3],0 n (%)
same,"Cough, Grade 3/4",[3],0 n (%)
same,"Cystitis Viral, Grade 3/4",[3],0 n (%)
same,"Cytomegalovirus Infection, Grade 3/4",[3],0 n (%)
same,"Decreased Appetite, Grade 3/4",[3],0 n (%)
same,"Diarrhoea, Grade 3/4",[3],0 n (%)
same,"Dyspepsia, Grade 3/4",[3],0 n (%)
same,"Epistaxis, Grade 3/4",[3],0 n (%)
same,"Fatigue, Grade 3/4",[3],0 n (%)
same,"General Physical Health Deterioration, Grade 3/4",[3],0 n (%)
same,"Gingival Bleeding, Grade 3/4",[3],0 n (%)
same,"Graft Versus Host Disease, Grade 3/4",[3],0 n (%)
same,"Haemoglobin Decreased, Grade 3/4",[3],0 n (%)
same,"Headache, Grade 3/4",[3],0 n (%)
same,"Hyperbilirubinaemia, Grade 3/4",[3],0 n (%)
same,"Hyperglycaemia, Grade 3/4",[3],0 n (%)
same,"Hyperphosphataemia, Grade 3/4",[3],0 n (%)
same,"Hyperuricaemia, All Grades",[3],2 n (%) and 2 (33.3) n (%) and 1 (14.3) n (%)
same,"Hypoalbuminaemia, Grade 3/4",[3],0 n (%)
same,"Hypocalcaemia, Grade 3/4",[3],0 n (%)
same,"Hypokalaemia, Grade 3/4",[3],0 n (%)
same,"Hypomagnesaemia, Grade 3/4",[3],0 n (%)
same,"Hyponatraemia, Grade 3/4",[3],0 n (%)
same,"Hypotension, Grade 3/4",[3],0 n (%)
same,"Infective Glossitis, Grade 3/4",[3],0 n (%)
same,"Influenza Like Illness, Grade 3/4",[3],0 n (%)
same,"Iron Overload, Grade 3/4",[3],0 n (%)
same,"Lip Oedema, Grade 3/4",[3],0 n (%)
same,"Malaise, Grade 3/4",[3],0 n (%)
same,"Mouth Haemorrhage, Grade 3/4",[3],0 n (%)
same,"Nausea, Grade 3/4",[3],0 n (%)
same,"Oedema Peripheral, Grade 3/4",[3],0 n (%)
same,"Oedema, Grade 3/4",[3],0 n (%)
same,"Oral Disorder, Grade 3/4",[3],0 n (%)
same,"Pain In Extremity, Grade 3/4",[3],0 n (%)
same,"Pneumonia, Grade 3/4",[3],0 n (%)
same,"Pollakiuria, Grade 3/4",[3],0 n (%)
same,"Pyrexia, Grade 3/4",[3],0 n (%)
same,"Rash Erythematous, Grade 3/4",[3],0 n (%)
same,"Rash Papular, Grade 3/4",[3],0 n (%)
same,"Rash, Grade 3/4",[3],0 n (%)
same,"Rectal Haemorrhage, Grade 3/4",[3],0 n (%)
same,"Skin Exfoliation, Grade 3/4",[3],0 n (%)
same,"Vomiting, Grade 3/4",[3],0 n (%)
same,"Weight Decreased, Grade 3/4",[3],0 n (%)
same,"Amylase Increased, All Grades",[3]; [4],1 (10.0) n (%)
same,"Amylase Increased, Grade 3/4",[3]; [4],1 (10.0) n (%)
same,"Anemia, All Grades",[3]; [4],5 (50.0) n (%)
same,"Anemia, Grade 3/4",[3]; [4],3 (30.0) n (%)
same,"Aspiration, All Grades",[3]; [4],1 (10.0) n (%)
same,"Aspiration, Grade 3/4",[3]; [4],1 (10.0) n (%)
same,"Blood Creatinine Increased, All Grades",[3]; [4],2 (20.0) n (%)
same,"Blood Creatinine Increased, Grade 3/4",[3]; [4],0 n (%)
same,"Blood Uric Acid Increased, All Grades",[3]; [4],2 (20.0) n (%)
same,"Blood Uric Acid Increased, Grade 3/4",[3]; [4],1 (10.0) n (%)
same,"Diarrhoea, All Grades",[3]; [4],3 (30.0) n (%)
same,"Diarrhoea, Grade 3/4",[3]; [4],0 n (%)
same,"Febrile Neutropenia, All Grades",[3]; [4],2 (20.0) n (%)
same,"Febrile Neutropenia, Grade 3/4",[3]; [4],2 (20.0) n (%)
same,"Hyperkalaemia, All Grades",[3]; [4],2 (20.0) n (%)
same,"Hyperkalaemia, Grade 3/4",[3]; [4],1 (10.0) n (%)
same,"Hyperuricaemia, All Grades",[3]; [4],1 (10.0) n (%)
same,"Hyperuricaemia, Grade 3/4",[3]; [4],1 (10.0) n (%)
same,"Hypocalcaemia, All Grades",[3]; [4],3 (30.0) n (%)
same,"Hypocalcaemia, Grade 3/4",[3]; [4],1 (10.0) n (%)
same,"Hypomagnesaemia, All Grades",[3]; [4],2 (20.0) n (%)
same,"Hypomagnesaemia, Grade 3/4",[3]; [4],0 n (%)
same,"Leukopenia, All Grades",[3]; [4],1 (10.0) n (%)
same,"Leukopenia, Grade 3/4",[3]; [4],1 (10.0) n (%)
same,"Megakaryocytes Abnormal, All Grades",[3]; [4],1 (10.0) n (%)
same,"Megakaryocytes Abnormal, Grade 3/4",[3]; [4],1 (10.0) n (%)
same,"Nausea, All Grades",[3]; [4],3 (30.0) n (%)
same,"Nausea, Grade 3/4",[3]; [4],0 n (%)
same,"Neutropenia, All Grades",[3]; [4],4 (40.0) n (%)
same,"Neutropenia, Grade 3/4",[3]; [4],3 (30.0) n (%)
same,"Thrombocytopenia, All Grades",[3]; [4],5 (50.0) n (%)
same,"Thrombocytopenia, Grade 3/4",[3]; [4],5 (50.0) n (%)
same,"Tumour Lysis Syndrome, All Grades",[3]; [4],5 (50.0) n (%)
same,"Tumour Lysis Syndrome, Grade 3/4",[3]; [4],5 (50.0) n (%)
same,Cycle 1 DLTs,"[3]; 1A (d1 Q3W) 250 mg, 3 evaluable patients",0
same,Cycle 1 DLTs,"[3]; 1A (d1 Q3W) 350 mg, 4 evaluable patients",0
same,Cycle 1 DLTs,"[3]; 1A (d1 Q3W) 400 mg, 9 evaluable patients",4
same,Cycle 1 DLTs,[3]; 1A total N = 16,4:
same,"Anemia, All Grades",[3]; [5],7 (30.4) n (%)
same,"Anemia, Grade 3/4",[3]; [5],2 (8.7) n (%)
same,"Asthenia, All Grades",[3]; [5],3 (13.0) n (%)
same,"Asthenia, Grade 3/4",[3]; [5],1 (4.3) n (%)
same,"Febrile Bone Marrow Aplasia, All Grades",[3]; [5],3 (13.0) n (%)
same,"Febrile Bone Marrow Aplasia, Grade 3/4",[3]; [5],2 (8.7) n (%)
same,"Leukopenia, All Grades",[3]; [5],3 (13.0) n (%)
same,"Leukopenia, Grade 3/4",[3]; [5],3 (13.0) n (%)
same,"Nausea, All Grades",[3]; [5],6 (26.1) n (%)
same,"Nausea, Grade 3/4",[3]; [5],0 n (%)
same,"Neutropenia, All Grades",[3]; [5],4 (17.4) n (%)
same,"Neutropenia, Grade 3/4",[3]; [5],4 (17.4) n (%)
same,"Thrombocytopenia, All Grades",[3]; [5],10 (43.5) n (%)
same,"Thrombocytopenia, Grade 3/4",[3]; [5],10 (43.5) n (%)
same,"Tumour Lysis Syndrome, All Grades",[3]; [5],4 (17.4) n (%)
same,"Tumour Lysis Syndrome, Grade 3/4",[3]; [5],3 (13.0) n (%)
same,"Vomiting, All Grades",[3]; [5],3 (13.0) n (%)
same,"Vomiting, Grade 3/4",[3]; [5],0 n (%)
same,Cycle 1 DLTs,"[3]; 1B (d1, d8 Q4W) 150 mg, 6 evaluable patients",1
same,Cycle 1 DLT events,[3]; 1B total N = 6,Acute Kidney
same,Cycle 1 DLTs,[3]; 1B total N = 6,1:
same,Cycle 1 DLTs,"[3]; 2A (2 weeks on/2 weeks off) 20 mg, 3 evaluable patients",0
same,Cycle 1 DLTs,"[3]; 2A (2 weeks on/2 weeks off) 30 mg, 3 evaluable patients",0
same,Cycle 1 DLTs,[3]; 2A total N = 6,0
same,"Alopecia, All Grades",[3]; [6],3 (12.0) n (%)
same,"Alopecia, Grade 3/4",[3]; [6],0 n (%)
same,"Anemia, All Grades",[3]; [6],13 (52.0) n (%)
same,"Anemia, Grade 3/4",[3]; [6],9 (36.0) n (%)
same,"Decreased Appetite, All Grades",[3]; [6],6 (24.0) n (%)
same,"Decreased Appetite, Grade 3/4",[3]; [6],0 n (%)
same,"Fatigue, All Grades",[3]; [6],5 (20.0) n (%)
same,"Fatigue, Grade 3/4",[3]; [6],2 (8.0) n (%)
same,"Febrile Neutropenia, All Grades",[3]; [6],8 (32.0) n (%)
same,"Febrile Neutropenia, Grade 3/4",[3]; [6],8 (32.0) n (%)
same,"Leukopenia, All Grades",[3]; [6],5 (20.0) n (%)
same,"Leukopenia, Grade 3/4",[3]; [6],5 (20.0) n (%)
same,"Nausea, All Grades",[3]; [6],12 (48.0) n (%)
same,"Nausea, Grade 3/4",[3]; [6],0 n (%)
same,"Neutropenia, All Grades",[3]; [6],11 (44.0) n (%)
same,"Neutropenia, Grade 3/4",[3]; [6],10 (40.0) n (%)
same,"Thrombocytopenia, All Grades",[3]; [6],13 (52.0) n (%)
same,"Thrombocytopenia, Grade 3/4",[3]; [6],12 (48.0) n (%)
same,"Tumour Lysis Syndrome, All Grades",[3]; [6],3 (12.0) n (%)
same,"Tumour Lysis Syndrome, Grade 3/4",[3]; [6],3 (12.0) n (%)
same,"Vomiting, All Grades",[3]; [6],6 (24.0) n (%)
same,"Vomiting, Grade 3/4",[3]; [6],0 n (%)
same,Cycle 1 DLTs,"[3]; 2C (1 week on/3 weeks off) 45 mg, 8 evaluable patients",1
same,Cycle 1 DLTs,[3]; 2C total N = 8,1
same,Patients with DLT,[3]; Regimen 2C 45 mg,12.5%
same,"Anemia, CTCAE grade 3/4 related to study drug","[3]; Regimen 2C 45 mg, 8 patients",37.5%
same,"Febrile neutropenia, CTCAE grade 3/4 related to study drug","[3]; Regimen 2C 45 mg, 8 patients",37.5%
same,"Neutropenia, CTCAE grade 3/4 related to study drug","[3]; Regimen 2C 45 mg, 8 patients",37.5%
same,Patients with at least one CTCAE grade 3/4 AE related to study drug,"[3]; Regimen 2C 45 mg, 8 patients",62.5%
same,"Thrombocytopenia, CTCAE grade 3/4 related to study drug","[3]; Regimen 2C 45 mg, 8 patients",62.5%
same,"Treatment-related anemia, all grades","[3]; Regimen 2C 45 mg, 8 patients",62.5%
same,"Treatment-related decreased appetite, all grades","[3]; Regimen 2C 45 mg, 8 patients",50.0%
same,"Treatment-related febrile neutropenia, all grades","[3]; Regimen 2C 45 mg, 8 patients",37.5%
same,"Treatment-related nausea, all grades","[3]; Regimen 2C 45 mg, 8 patients",37.5%
same,"Treatment-related neutropenia, all grades","[3]; Regimen 2C 45 mg, 8 patients",50.0%
same,"Treatment-related thrombocytopenia, all grades","[3]; Regimen 2C 45 mg, 8 patients",62.5%
